A melting point compilation (Tetko et al.; mined from patent text by program, amines drawn as free bases though some values may be those of a salt)

Structure (SMILES) | melting point
COc1ccc2c(c1)CCNC(=O)C2 | 152 to 154 °C
COC(=O)C(C#N)c1c[nH]c2ccc(OC)cc12 (centres undefined) | 98 to 100 °C
CC(C)(C)OC(=O)N1CCN(C(=O)NNC(=O)OCc2ccccc2)CC1 | 194 to 196 °C
CSC1C(=O)Nc2c(Oc3cccc4ccccc34)cccc21 (centres undefined) | 134 to 139 °C
O=C(c1cnoc1C1CC1)c1ncc(Cl)cc1Cl | 74 to 75 °C
CN(C)n1cc(-c2ccccc2)c(=O)c(-c2ccccc2)c1 | 143 °C
CC1(CNC(=O)OCc2ccccc2)Cn2cc([N+](=O)[O-])nc2O1 (centres undefined) | 171 to 172 °C
COC(=O)c1cc(-n2c(OC)nc(C(F)(F)F)cc2=O)c(F)cc1Cl | 115 to 117 °C
O=C(Nc1ccc(N2CC3CC3C2)nc1)c1cc2cc(F)cnc2n1Cc1cccc(F)c1 (centres undefined) | 222 to 224 °C
N#Cc1cccc2[nH]ccc12 | 115 to 116 °C
OCCC1(S)C2CC3CC(C2)CC1C3 (centres undefined) | 68 to 70 °C
CCCCCCCC(=O)N(C)Cc1cccc(-c2ccc(C=CC(=O)O)o2)c1 | 96 to 98 °C
CC(=O)c1ccc(NC(=O)N2CCN(c3ncnc4c(Cl)cccc34)CC2)cc1 | 208 to 209 °C
CC1(C)C(=O)Nc2ccccc2C1(O)c1ccccc1 (centres undefined) | 185 to 187 °C
Cc1cc(-c2cc(C(F)(F)F)n3ncc(-c4cccnc4)c3n2)ccc1C(F)(F)F | 177 °C
CCc1cc(CC)c2oc(C(=O)O)cc(=O)c2c1O | 218 to 220 °C
COc1cc(C[C@H](NC(=O)OC(C)(C)C)C(=O)O)cc(OC)c1OC | 76 to 80 °C
Fc1ccc(F)c(C=C2CCNc3nc(Br)ccc32)c1 | 178 to 179 °C
CCCCCc1ccc(CCc2ccc(-c3ccc([C@H]4CC[C@H](CCCCC)CC4)cc3F)cc2)cc1 | 69 °C
COc1ccc(Cl)cc1C(CCO)c1ccccc1 (centres undefined) | 80 °C
COC(=O)NC1CCc2ccc(Cl)cc2C1 (centres undefined) | 99 to 101 °C
Cc1ccc2c(c1)nnn2C(=O)N(c1ccccc1)c1ccccc1 | 132 to 133 °C
Cc1ccc(S(=O)(=O)NC[C@H](F)Cc2ccccc2)cc1 | 130 to 133 °C
COc1c(C)cc(N)c(CS(=O)c2nc3ccccc3[nH]2)c1C (centres undefined) | 150 to 155 °C
O=[N+]([O-])c1cnn2c(-c3ccccc3)nc3ccccc3c12 | 187 to 188 °C

Structure (SMILES) | melting point
Cc1cc(N)cc(C)c1Oc1ccc(Cl)c2c1CCCC2 | 126 to 135 °C
CCOc1ccc(C(=O)N2CC(C(=O)OC)N(S(=O)(=O)c3ccc(OC)cc3)Cc3ccccc32)cc1 (centres undefined) | 187 to 190 °C
Cc1ccnc2c1nc(C)n2-c1ccccc1 | 117 to 119 °C
O=C(OCC1CO1)c1c(Br)c(Br)c(C(=O)OCC2CO2)c(Br)c1Br (centres undefined) | 161 °C
CC(=O)Oc1c(C)nc(N(C)C)nc1-c1ccccc1 | 126 to 128 °C
O=C(Nc1ccc2ccc(Cl)nc2n1)C1CCC1 | 192 °C
COCC(=O)OC[C@@H]1CC(c2ccc(-c3ccc(N4C[C@H](Cn5ccnn5)OC4=O)cc3F)cn2)=NO1 | 170 °C
COC1=CC2(C)CCc3c(OC)ccc(OC)c3C2=CC1=O (centres undefined) | 184 to 186 °C
CCOC(=O)c1ccc(NC(=O)c2ccc(F)cc2)cc1 | 172 to 174 °C
O=c1c2c(n(-c3ccccc3)c3ncccc13)SCC2 | 260 to 261 °C
O=S(=O)(Nc1ccccc1/C=C/c1ccncc1)c1ccc(Cl)cc1 | 218 to 220 °C
Cc1nc(-c2ccc(Cl)cc2)oc1CO | 135 °C
CC[C@H](NC(=O)OC(C)(C)C)C(=O)OCCCCNc1cccc2c1C(=O)c1ccccc1C2=O | 58 °C
CCOC(=O)/C(=N\OC1CCCC1)c1csc(N)n1 | 136 to 138 °C
ClCc1cn2cc(Cl)cc(Cl)c2n1 | 162 to 163 °C
C=CCCOc1cc2c(c(Cl)c1Cl)C(=O)C(C)(C1CCCC1)C2 (centres undefined) | 63 to 65 °C
C=CCOc1ccc2cc(Br)ccc2c1 | 35 to 37 °C
CCN(CC)C(=O)c1cc2c(cn1)[nH]c1ccccc12 | 170 °C
Nc1sc(-c2cccnc2)c(CN(C2CCCCC2)C2CCCCC2)c1C(=O)c1ccc(Cl)cc1 | 168 to 170 °C
CCc1nn(C2CCCC2)c2cc(C(=O)NCCC(=O)NOCc3ccccc3)ccc12 | 134 to 136 °C
CCOC(=O)/C=C1\OC(=O)c2ccccc21 | 132 to 134 °C
O=c1[nH]c2ccccc2n1CCCN1CCC(OC(c2ccccc2)c2ccccc2)CC1 | 149 °C
COc1ccc(N2C[C@](C)(CO)OC2=O)cc1 | 131 to 132 °C
CCCCc1ncc(C(=O)OC)c(=O)[nH]1 | 153 to 155 °C
CCN1C(=O)C(C)(C)C(=O)N(C)c2cc(CN(CCn3ccc4oc(C)cc4c3=O)Cc3ccccc3C#N)ccc21 | 157 to 159 °C

Structure (SMILES) | melting point
CC(=O)OC1CC2CCC3C(CCC4(C)C(O)C(N5CCCCC5)CC34)C2(C)CC1N1CCCCC1 (centres undefined) | 183 °C
CC(Oc1ccc2c(c1)C(O)C(Cc1cccc(C(=O)O)c1)CO2)c1ccc2ccccc2n1 (centres undefined) | 70 to 73 °C
C#CCc1c(C)nc(C)nc1NCc1ccc(-c2ccccc2-c2nnn[nH]2)cc1 | 205 to 206 °C
O=C(O)CCC(=O)c1ccc(Br)s1 | 141 to 143 °C
CC(C(=O)c1c(O)c2cccnc2n(-c2ccccc2)c1=O)c1ccccc1 (centres undefined) | 140 to 151 °C
COc1ccc(Nc2ccc(Nc3ncnc4cc(-c5ccccc5[N+](=O)[O-])sc34)cc2)cc1 | 228 to 237 °C
COc1ccc(-c2cc(=S)n(Cc3ccc(F)cc3F)nc2-c2ccc(OC)cc2)cc1 | 175 to 176 °C
CC(CN1CC=C(c2ccc(Cl)cc2)CC1)C(O)c1ccc(Cl)cc1 (centres undefined) | 110 to 112 °C
CC1=C(C(=O)OC(C)(C)C)C(c2ccc(Br)cc2)C(C(=O)OC(C)(C)C)=C(C)N1 | 206 to 207 °C
C[C@@H]1C[C@H](C)CN(S(=O)(=O)c2ccc(Cl)c(C(=O)NCC(=O)O)c2)C1 | 190 to 192 °C
CN(C)C(=O)c1ccc(-c2ccc3nnn(Cc4ccc5ncccc5c4)c3n2)cc1F | 163 to 165 °C
COC1CC2CC(OC(=O)c3ccccc3)CCC2(C)C2CCC3(C)C(=C12)C(O)CC3C(C)CCCC(C)C (centres undefined) | 182 to 183 °C
O=C1OCc2ncccc21 | 113 to 118 °C
CC(=O)N1c2ccccc2[C@@]2(C)Cc3ccccc3[C@@]12C (relative stereo) | 81 °C
COC(=O)c1ccc2c(c1)C(=O)C(Cc1cccc(C(=O)O)c1)O2 (centres undefined) | 140 to 143 °C
Cc1ccc(-c2ccc3c(c2)C(=O)CC3)cc1 | 121 to 122 °C
Oc1ccc2c(c1)C[C@H](O)[C@H](O)C2 (relative stereo) | 193 to 196 °C
CCNc1cccc(-c2ccnc3c(C(=O)c4ccccc4)cnn23)c1 | 98 to 99 °C
CCCc1nc(C)n2nc(N)nc2c1Cc1ccc(-c2ccccc2C#N)cc1 | 150 °C
CCOC(=O)Cc1c(C(F)(F)F)c2ccc(O)cc2oc1=O | 112 to 114 °C
CCC(=O)N1CCN(c2ccc(NC(=O)c3cc(=O)c4cc(F)cc(N5CCN(C)CC5)c4o3)cc2)CC1 | 244 to 245 °C
CCCCCNC(CCCCC)=C1C(=O)ON=C1C | 36 °C
COc1cc(Cc2cnc(N)nc2NO)cc(OC)c1OC | 208 to 210 °C
CCCCCCCCCCCCCCOc1ccc(NCc2cccnc2)cc1 | 75 to 76 °C
